# Test results taken from patent US20230026271A1, “Piperazine Compounds for Inhibiting CPS1” (Eisai R&D Management Co., Ltd., priority 2019, published 2023).
# Molecular target: T1, CPS1 (Homo sapiens, UniProt P31327)
# T1 construct: The full length, human CPS1 gene was cloned into pFastBac HTA; His6 (from the pFastBac HTA vector); made in house; host or cells: SF21 insect cells (baculovirus, Bac-to-bac)
# T1 sequence (P31327 39-1500): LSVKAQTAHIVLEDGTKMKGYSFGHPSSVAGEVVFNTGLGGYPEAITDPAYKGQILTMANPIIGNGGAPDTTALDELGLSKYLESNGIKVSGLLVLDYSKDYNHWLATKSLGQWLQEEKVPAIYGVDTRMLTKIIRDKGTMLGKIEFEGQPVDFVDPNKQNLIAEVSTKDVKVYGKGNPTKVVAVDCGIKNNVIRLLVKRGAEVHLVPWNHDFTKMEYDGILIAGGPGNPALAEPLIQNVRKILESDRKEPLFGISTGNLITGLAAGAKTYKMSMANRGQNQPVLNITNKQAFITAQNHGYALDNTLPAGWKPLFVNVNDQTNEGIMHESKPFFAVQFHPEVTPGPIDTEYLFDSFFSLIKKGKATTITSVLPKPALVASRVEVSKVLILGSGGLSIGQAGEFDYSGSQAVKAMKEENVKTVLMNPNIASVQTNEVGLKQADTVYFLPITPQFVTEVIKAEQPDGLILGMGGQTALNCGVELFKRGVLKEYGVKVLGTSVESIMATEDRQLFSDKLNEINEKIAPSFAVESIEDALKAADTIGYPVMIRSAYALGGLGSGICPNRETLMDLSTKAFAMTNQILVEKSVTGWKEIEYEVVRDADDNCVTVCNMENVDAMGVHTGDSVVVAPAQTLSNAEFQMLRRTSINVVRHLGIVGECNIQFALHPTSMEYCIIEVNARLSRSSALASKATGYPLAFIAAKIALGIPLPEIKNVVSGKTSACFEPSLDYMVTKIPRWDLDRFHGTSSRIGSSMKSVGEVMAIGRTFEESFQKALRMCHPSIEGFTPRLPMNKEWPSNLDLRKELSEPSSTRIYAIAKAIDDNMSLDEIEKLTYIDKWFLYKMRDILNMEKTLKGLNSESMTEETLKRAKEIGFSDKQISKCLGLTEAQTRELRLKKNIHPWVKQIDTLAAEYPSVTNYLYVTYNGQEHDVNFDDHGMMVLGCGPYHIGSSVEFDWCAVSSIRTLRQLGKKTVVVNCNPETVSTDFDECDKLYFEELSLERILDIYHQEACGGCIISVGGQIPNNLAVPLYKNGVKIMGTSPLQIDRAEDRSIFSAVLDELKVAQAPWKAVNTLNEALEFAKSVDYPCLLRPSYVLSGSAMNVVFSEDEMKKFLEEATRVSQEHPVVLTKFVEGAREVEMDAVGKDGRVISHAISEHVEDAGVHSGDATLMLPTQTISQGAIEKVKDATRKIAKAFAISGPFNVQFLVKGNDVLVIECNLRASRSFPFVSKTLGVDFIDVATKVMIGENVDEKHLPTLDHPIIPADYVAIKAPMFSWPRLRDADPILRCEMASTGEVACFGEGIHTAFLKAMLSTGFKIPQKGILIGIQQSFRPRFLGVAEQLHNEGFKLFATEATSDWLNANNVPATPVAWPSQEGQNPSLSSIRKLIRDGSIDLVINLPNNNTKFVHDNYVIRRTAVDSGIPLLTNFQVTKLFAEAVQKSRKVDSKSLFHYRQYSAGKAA
# Assay: ADP-Glo endpoint assay measuring the ATPase activity of CPS1
# Type: biochemical
# Details: geometric mean of a minimum of two values; 50 nM CPS1, 10 μM ATP, 0.2 mM NAG, 60 min at room temperature; read-out: ADPGlo IC50
# Procedure, shortened: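 Full-length human His-tagged CPS1 from SF21 insect cells, 50 nM, preincubated 20 min with compound in pH 7.0 HEPES buffer containing KHCO3, (NH4)2SO3, MgCl2 and 0.2 mM NAG. Reaction started with 10 μM ATP, 60 min at room temperature; ADP formed detected by ADP-Glo luminescence.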
row,SMILES,IC50 [µM]
1,"COc1ccc(OC)c2[nH]c(C(=O)N3CCN(C(=O)Cc4c[nH]c5ccccc45)CC3)cc12 [Compound 64, 1-(4-(4,7-dimethoxy-1H-indole-2-carbonyl)piperazin-1-yl)-2-(1H-indol-3-yl)ethanone]",3.72
2,"COc1ccc(C(=O)N2[C@H](C)CN(C(=O)c3ccc(O)cc3F)C[C@H]2C)c(F)c1 [Compound 65, ((2R,6R)-4-(2-fluoro-4-hydroxybenzoyl)-2,6-dimethylpiperzin-1-yl)(2-fluoro-4-methoxyphenyl)methanone]",3.79
3,"COc1ccc(C(=O)N2C[C@@H](C)N(C(=O)c3ccc(Cl)cc3F)[C@H](C)C2)c(F)c1 [Compound 66, ((3R,5R)-4-(4-chloro-2-fluorobenzoyl)-3,5-dimethylpiperazin-1-yl)(2-fluoro-4-methoxyphenyl)methanone]",4.91
4,"COc1ccc(C(=O)N2C[C@@H](C)N(C(=O)c3cc(OC)ccc3F)[C@H](C)C2)c(F)c1 [Compound 67, ((2R,6R)-4-(2-fluoro-4-methoxybenzoyl)-2,6-dimethylpiperazin-1-yl)(2-fluoro-5-methoxyphenyl)methanone]",5.15
5,"COc1ccc(C(=O)N2CC(C)N(C(=O)c3ccc(OC)cc3F)C(C)C2)c(F)c1 (stereo not drawn) [Compound 68, (2,6-dimethylpiperazine-1,4-diyl)bis((2-fluoro-4-methoxyphenyl)methanone)]",6.34
6,"COc1ccc(C(=O)N2[C@H](C)CN(C(=O)c3ccc4c(c3)NCC4)C[C@H]2C)c(F)c1 [Compound 69, ((3R,5R)-4-(2-fluoro-4-methoxybenzoyl)-3,5-dimethylpiperazin-1-yl)(indolin-6-yl)methanone]",6.43
7,COc1ccc(C(=O)N2C[C@@H](C)N(C(=O)c3ccc(C)c(O)c3)[C@H](C)C2)c(F)c1 [Compound 70],8.71
8,COc1ccc(C(=O)N2CC(C)N(C(=O)c3ccc(OC)cc3F)CC2C)c(F)c1 (stereo not drawn) [Compound 71],9.97
9,"COc1ccc(C(=O)N2[C@H](C)CN(C(=O)c3ccc(OC)c(O)c3)C[C@H]2C)c(F)c1 [Compound 72, ((3R,5R)-4-(2-fluoro-4-methoxybenzoyl)-3,5-dimethylpiperazin-1-yl)(3-hydroxy-4-methoxyphenyl)methanone]",11.5
10,"COc1ccc(C(=O)N2C[C@@H](C)N(C(=O)c3ccc4cc[nH]c4c3F)[C@H](C)C2)c(F)c1 [Compound 73, (7-fluoro-1H-indol-6-yl)((2R,6R)-4-(2-fluoro-4-methoxybenzoyl)-2,6-dimethylpiperazin-1-yl)methanone]",11.6
11,"COc1ccc(C(=O)N2C[C@@H](C)N(C(=O)c3ccc4c(c3)CCCO4)[C@H](C)C2)c(F)c1 [Compound 74, ((3R,5R)-4-(chroman-6-carbonyl)-3,5-dimethylpiperazin-1-yl)(2-fluoro-4-methoxyphenyl)methanone]",15.8
12,"COc1ccc(C(=O)N2C[C@@H](C)N(C(=O)c3cccc(O)c3F)[C@H](C)C2)c(F)c1 [Compound 75, ((3R,5R)-4-(2-fluoro-3-hydroxybenzoyl)-3,5-dimethylpiperazin-1-yl)(2-fluoro-4-methoxyphenyl)methanone]",16.1
13,"COc1ccc(C(=O)N2C[C@@H](C)N(C(=O)c3ccc(S(C)(=O)=O)cc3F)[C@H](C)C2)c(F)c1 [Compound 76, ((3R,5R)-4-(2-fluoro-4-(methylsulfonyl)benzoyl)-3,5-dimethylpiperazin-1-yl)(2-fluoro-4-methoxyphenyl)methanone]",16.7
14,"COc1ccc(C(=O)N2[C@H](C)CN(C(=O)c3c[nH]c4ccccc34)C[C@H]2C)c(F)c1 [Compound 77, ((2R,6R)-4-(1H-indole-3-carbonyl)-2,6-dimethylpiperazin-1-yl)(2-fluoro-4-methoxyphenyl)methanone]",18.9
15,"COc1ccc(C(=O)N2[C@H](C)CN(C(=O)Cc3c(C)[nH]c4ccccc34)C[C@H]2C)c(F)c1 [Compound 78, 1-((3R,5R)-4-(2-fluoro-4-methoxybenzoyl)-3,5-dimethylpiperazin-1-yl)-2-(2-methyl-1H-indol-3-yl)ethanone]",19.2
16,"COc1ccc(C(=O)N2C[C@@H](C)N(C(=O)c3ccc(OC)c(C)c3)[C@H](C)C2)c(F)c1 [Compound 79, ((2R,6R)-4-(2-fluoro-4-methoxybenzoyl)-2,6-dimethylpiperazin-1-yl)(4-methoxy-3-methylphenyl)methanone]",22.2
17,"COc1ccc(C(=O)N2C[C@@H](C)N(C(=O)c3ccc(-c4ccn(C)n4)cc3)[C@H](C)C2)c(F)c1 [Compound 80, ((3R,5R)-3,5-dimethyl-4-(4-(1-methyl-1H-pyrazol-3-yl)benzoyl)piperazin-1-yl)(2-fluoro-4-methoxyphenyl)methanone]",22.9
18,"COc1ccc(C(=O)N2[C@H](C)CN(C(=O)c3c(C)cc(OC)cc3F)C[C@H]2C)c(F)c1 [Compound 81, ((2R,6R)-4-(2-fluoro-4-methoxy-6-methylbenzoyl)-2,6-dimethylpiperazin-1-yl)(2-fluoro-4-methoxyphenyl)methanone]",25.8
19,"COc1ccc(C(=O)N2[C@H](C)CN(C(=O)c3cc4c(OC)ccc(OC)c4[nH]3)C[C@H]2C)c(F)c1 [Compound 82, (4,7-dimethoxy-1H-indol-2-yl)((3R,5R)-4-(2-fluoro-4-methoxybenzoyl)-3,5-dimethylpiperazin-1-yl)methanone]",26.4
20,"COc1ccc(C(=O)N2[C@H](C)CN(C(=O)c3ccc4ccn(C)c4c3)C[C@H]2C)c(F)c1 [Compound 83, ((2R,6R)-2,6-dimethyl-4-(1-methyl-1H-indole-6-carbonyl)piperazin-1-yl)(2-fluoro-4-methoxyphenyl)methanone]",31
21,"COc1ccc(OC)c2[nH]c(C(=O)N3[C@H](C)CN(C(=O)Cc4cc5ccccc5[nH]4)C[C@H]3C)cc12 [Compound 84, 1-((3R,5R)-4-(4,7-dimethoxy-1H-indole-2-carbonyl)-3,5-dimethylpiperazin-1-yl)-2-(1H-indol-2-yl)ethanone]",32.1
22,"COc1ccc(C(=O)N2C[C@@H](C)N(C(=O)c3cccc(O)c3)[C@H](C)C2)c(F)c1 [Compound 85, ((2R,6R)-4-(2-fluoro-4-methoxybenzoyl)-2,6-dimethylpiperazin-1-yl)(3-hydroxyphenyl)methanone]",34.1
23,"COc1ccc(C(=O)N2CCN(C(=O)c3ccc(OC)cc3F)C(C)C2C)c(F)c1 (stereo not drawn) [Compound 86, (2,3-dimethylpiperazine-1,4-diyl)bis((2-fluoro-4-methoxyphenyl)methanone)]",36.1
24,"COc1ccc(C(=O)N2[C@H](C)CN(C(=O)c3c[nH]c4ccc(F)cc34)C[C@H]2C)c(F)c1 [Compound 87, (5-fluoro-1H-indol-3-yl)((3R,5R)-4-(2-fluoro-4-methoxybenzoyl)-3,5-dimethylpiperazin-1-yl)methanone]",37.7
25,"COc1ccc(C(=O)N2[C@H](C)CN(C(=O)Cc3n[nH]c4ccccc34)C[C@H]2C)c(F)c1 [Compound 88, 1-((3R,5R)-4-(2-fluoro-4-methoxybenzoyl)-3,5-dimethylpiperazin-1-yl)-2-(1H-indazol-3-yl)ethanone]",38.2
26,"COc1ccc(C(=O)N2[C@H](C)CN(C(=O)Cc3c[nH]c4cccnc34)C[C@H]2C)c(F)c1 [Compound 89, 1-((3R,5R)-4-(2-fluoro-4-methoxybenzoyl)-3,5-dimethylpiperazin-1-yl)-2-(1H-pyrrolo[3,2-b]pyridin-3-yl)ethanone]",42.7
27,"COc1ccc(C(=O)N2C[C@@H](C)N(C(=O)c3ccc(-c4nnn[nH]4)cc3)[C@H](C)C2)c(F)c1 [Compound 90, ((3R,5R)-4-(4-(1H-tetrazol-5-yl)benzoyl)-3,5-dimethylpiperazin-1-yl)(2-fluoro-4-methoxyphenyl)methanone]",45
